Reference: patent US7452688B2, “Transformed cell with enhanced sensitivity to antifungal compound and use thereof” (Sumitomo Chemical Company, Limited, priority 2002, dated 2008)

Key:
Format in all cases: cell-based, Saccharomyces cerevisiae
[1] = system: transformed budding yeast TM182-StOS1; assay: Antifungal compound sensitivity test of transformed budding yeast TM182-StOS1 (Example 16); conditions: for Degree of growth of budding yeast TM182-StOS1 Gal-Ura-Leu medium: control medium, 30° C. 49.5 hours; for Degree of growth of budding yeast TM182-StOS1 Gul-Ura-Leu medium: 30° C. 26.5 hours
Procedure: Similarly, the transformed budding yeast TM182-StOS1 prepared in Example 15 was cultured at 30° C. for 18 hours in a Glu-Ura-Leu medium. The absorbance at 600 nm of the grown transformed budding yeast in a cell suspension was measured, and a cell suspension diluted with sterilized distilled water to the absorbance of 0.1 was prepared. Further, a cell suspension in which the transformed budding yeast TM182-StOS1 was diluted 50-fold with a Glu-Ura-Leu medium and, as a control, a cell suspension in which the yeast was diluted 50-fold with a Gal-Ura-Leu medium were prepared.
A solution in which each of Compounds (1) to (3) was dissolved in dimethylsulfoxide (DMSO) to the concentration of 6 ppm, a solution in which each of Compounds (4) and (5) was dissolved in dimethylsulfoxide (DMSO) to the concentration of 2000 ppm, and a solution in which each of Compounds (6) and (7) was dissolved in dimethylsulfoxide (DMSO) to the concentration of 20 ppm were prepared, and two microplates were prepared in which each 2.0 μL per well of the Compound-DMSO solution and DMSO as a control were dispensed into 2 wells. In one microplate among them, each 100 μL of cell suspensions of the transformed budding yeast TM182-StOS1 which had been prepared by dilution with a Glu-Ura-Leu medium as described above was dispensed, and cultured by allowing to stand at 30° C. for 26.5 hours. In another microplate, as described above, as a control, each 100 μL of cell suspensions of the transformed budding yeast TM182-StOS1 which had been prepared by dilution with a Gal-Ura-Leu medium was dispensed, and cultured at 30° C. for 49.5 hours. After culturing, the absorbance at 600 nm of each well was measured with a microplate reader.
A degree of growth of the transformed budding yeast is expressed as a relative value in percentage, letting the absorbance at 600 nm at the concentration of the Compound of 0 ppm to be 100. It was confirmed that an inhibiting degree of growth of the transformed budding yeast TM182-StOS1 by each test substance was grater than an inhibiting degree of growth of the transformed budding yeast AH22-StOS1 by each test substance, and the transformed budding yeast TM182-StOS1 was a transformed cell with the enhanced sensitivity to an antifungal compound as compared with the transformed budding yeast AH22-StOS1.

[2] = system: transformed budding yeast TM182-BcOS1-I365S; assay: Antifungal compound sensitivity test of transformed budding yeast TM182-BcOS1-I365S (Example 6); conditions: final concentration 6 ppm, 30° C. 67 hours; for Degree of growth of budding yeast (%) TM182-BcOS1-I365S Gal-Ura-Leu medium: control medium
[3] = system: transformed budding yeast TM182-BcOS1-I365S; assay: as above; conditions: 30° C. 67 hours; for Degree of growth of budding yeast (%) TM182-BcOS1-I365S Gal-Ura-Leu medium: control medium
Procedure: The transformed budding yeast TM182-BcOS1-I365S prepared in Example 5 was cultured at 30° C. for 18 hours in a Glu-Ura-Leu medium. The absorbance at 600 nm of a cell suspension of the grown transformed budding yeast was measured, and a cell suspension diluted with sterilized distilled water to the absorbance of 0.1 was prepared. Further, a cell suspension in which the aforementioned cell suspension of the transformed budding yeast TM182-BcOS1-I365S was diluted 200-fold with a Glu-Ura-Leu medium and, as a control, a cell suspension in which the cell suspension was diluted 200-fold with a Gal-Ura-Leu medium were prepared. A solution in which each of Compound (1) to (3) was dissolved in dimethylsulfoxide (DMSO) to the concentration of 60 ppm, a solution in which each of Compounds (4) and (5) was dissolved in dimethylsulfoxide (DMSO) to the concentration of 2000 ppm, and a solution in which each of Compounds (6) and (7) was dissolved in dimethylsulfoxide (DMSO) to the concentration of 20 ppm were prepared, and two microplates were prepared in which each 2.0 μL per well of the Compound solution and DMSO as a control were dispensed into two wells. In one microplate among them, each 200 μL of cell suspensions of the transformed budding yeast TM182-BcOS1-I365S which had been prepared by dilution with a Glu-Ura-Leu medium as described above was dispensed, and cultured by allowing to stand at 30° C. for 67 hours. In another microplate, as a control, each 200 μL of cell suspensions of the transformed budding yeast TM182-BcOS1-I 365S which had been prepared by dilution with a Gal-Ura-Leu medium was dispensed, and cultured by allowing to stand at 30° C. for 67 hours. After culturing, the absorbance at 600 nm of each well was measured with a microplate reader.
Degrees of growths of both of the transformed budding yeasts cultured under the presence of Compounds (1) to (7) and budding yeast as a control therefor are shown in Table 2. Degrees of growths of both of the transformed budding yeasts and budding yeast as a control are expressed by a relative value in percentage, letting the absorbance at 600 nm at the concentration of the Compound of 0 ppm to be 100. It was confirmed that an inhibiting degree of growth of the transformed budding yeast TM182-BcOS1-I 365S by each test substance was grater than an inhibiting degree of growth of the transformed budding yeast AH22-BcOS1-I 365S by each test substance, and the transformed budding yeast TM182-BcOS1-I365S was a transformed cell with the enhanced sensitivity to an antifungal compound as compared with the transformed budding yeast AH22-BcOS1-I365S.

CC(C)NC(=O)N1CC(=O)N(c2cc(Cl)cc(Cl)c2)C1=O [Compound (2), Iprodione]
Degree of growth of budding yeast TM182-StOS1 Gal-Ura-Leu medium ([1]; final concentration 0.6 ppm): 97% | Degree of growth of budding yeast TM182-StOS1 Gul-Ura-Leu medium ([1]; final concentration 0.6 ppm): 23% | Degree of growth of budding yeast (%) TM182-BcOS1-I365S Gal-Ura-Leu medium [2]: 88% | Degree of growth of budding yeast (%) TM182-BcOS1-I365S Glu-Ura-Leu medium [2]: 11%

N#Cc1c[nH]cc1-c1cccc2c1OC(F)(F)O2 [Compound (6), Fludioxonil]
Degree of growth of budding yeast TM182-StOS1 Gal-Ura-Leu medium ([1]; final concentration 0.2 ppm): 97% | Degree of growth of budding yeast TM182-StOS1 Gul-Ura-Leu medium ([1]; final concentration 0.2 ppm): 6% | Degree of growth of budding yeast (%) TM182-BcOS1-I365S Gal-Ura-Leu medium ([3]; final concentration 0.2 ppm): 93% | Degree of growth of budding yeast (%) TM182-BcOS1-I365S Glu-Ura-Leu medium ([3]; final concentration 0.2 ppm): 7%

COP(=S)(OC)Oc1c(Cl)cc(C)cc1Cl [Compound (5), Tolclofos-methyl]
Degree of growth of budding yeast TM182-StOS1 Gal-Ura-Leu medium ([1]; final concentration 20 ppm): 74% | Degree of growth of budding yeast TM182-StOS1 Gul-Ura-Leu medium ([1]; final concentration 20 ppm): 6% | Degree of growth of budding yeast (%) TM182-BcOS1-I365S Gal-Ura-Leu medium ([3]; final concentration 20 ppm): 76% | Degree of growth of budding yeast (%) TM182-BcOS1-I365S Glu-Ura-Leu medium ([3]; final concentration 20 ppm): 13%

O=[N+]([O-])c1c(Cl)c(Cl)c(Cl)c(Cl)c1Cl [Compound (4), Quintozene]
Degree of growth of budding yeast TM182-StOS1 Gal-Ura-Leu medium ([1]; final concentration 20 ppm): 99% | Degree of growth of budding yeast TM182-StOS1 Gul-Ura-Leu medium ([1]; final concentration 20 ppm): 7% | Degree of growth of budding yeast (%) TM182-BcOS1-I365S Gal-Ura-Leu medium ([3]; final concentration 20 ppm): 101% | Degree of growth of budding yeast (%) TM182-BcOS1-I365S Glu-Ura-Leu medium ([3]; final concentration 20 ppm): 41%

C=CC1(C)OC(=O)N(c2cc(Cl)cc(Cl)c2)C1=O (stereo not shown) [Compound (3), Vinclozolin]
Degree of growth of budding yeast TM182-StOS1 Gal-Ura-Leu medium ([1]; final concentration 0.6 ppm): 94% | Degree of growth of budding yeast TM182-StOS1 Gul-Ura-Leu medium ([1]; final concentration 0.6 ppm): 19% | Degree of growth of budding yeast (%) TM182-BcOS1-I365S Gal-Ura-Leu medium [2]: 92% | Degree of growth of budding yeast (%) TM182-BcOS1-I365S Glu-Ura-Leu medium [2]: 9%

CC12CC1(C)C(=O)N(c1cc(Cl)cc(Cl)c1)C2=O (stereo not shown) [Compound (1), Procymidone]
Degree of growth of budding yeast TM182-StOS1 Gal-Ura-Leu medium ([1]; final concentration 0.6 ppm): 101% | Degree of growth of budding yeast TM182-StOS1 Gul-Ura-Leu medium ([1]; final concentration 0.6 ppm): 67% | Degree of growth of budding yeast (%) TM182-BcOS1-I365S Gal-Ura-Leu medium [2]: 99% | Degree of growth of budding yeast (%) TM182-BcOS1-I365S Glu-Ura-Leu medium [2]: 9%

N#Cc1c[nH]cc1-c1cccc(Cl)c1Cl [Compound (7), Fenpiclonil]
Degree of growth of budding yeast TM182-StOS1 Gal-Ura-Leu medium ([1]; final concentration 0.2 ppm): 91% | Degree of growth of budding yeast TM182-StOS1 Gul-Ura-Leu medium ([1]; final concentration 0.2 ppm): 9% | Degree of growth of budding yeast (%) TM182-BcOS1-I365S Gal-Ura-Leu medium ([3]; final concentration 0.2 ppm): 90% | Degree of growth of budding yeast (%) TM182-BcOS1-I365S Glu-Ura-Leu medium ([3]; final concentration 0.2 ppm): 22%
